The test system of test [1] is cancer cell lines of the NCI-60 assay. In words: NCI one-dose (10 μM) NCI-60 testing. In kind it is cell-based. As to conditions: for inhibition at 10 µM: 1-dose testing; for anti-cancer activity: NCI-60 anti-cancer testing in vitro. The method, then:
FIG. 1: Chiral supercritical fluid chromatography (SFC) was used to separate the shown racemate into its component R and S stereoisomers and two samples of opposite >97% enantiomeric excess (ee) was achieved: termed 8a and 8b respectively. 8a and 8b differ from 6a and 6b because they have methyl (Me, CH3), instead of hydrogen (H), upon their chiral carbon. 8a and 8b were independently tested in NCI one-dose (10 μM) testing: their results are shown in FIGS. (1B) and (1C) respectively.
(§1) (1E) 8a and 8b NCI one-dose (10 μM) test results side by side. % cancer growth inhibition >100 means there are less cancer cells at experiment end than beginning (i.e. cancer killing activity), =200=all cancer cells dead at experiment end. The observed pattern of 8a vs. 8b activity is hard to explain. One would expect one stereoisomer to have greater or equal activity than the other. […] Moreover, for one cancer cell line (NCI-H322M), 8a has no activity, yet 8b does.

The subject of a further test is A498. The test can be described thus: NCI one-dose (10 μM) testing, A498. Type of test: cell-based. The method, then:
as §1

The subject of a further test is NCI-H322M. The test can be described thus: NCI one-dose (10 μM) testing, NCI-H322M. Type of test: cell-based. The method, then: as §1
Test [2] deals with cancer cell lines of the NCI-60 assay. In words: NCI-60 five-dose in vitro assay. In kind it is cell-based. To be noted: at 10 μM in 5-dose testing. The method, then:
The present figure, herein, is a summary figure of that data (corresponding to FIG. 16K in the aforementioned Canadian application). Mean G150 for 8b and 8a is 3.09 and 2.85 μM respectively. […] In the 8a case, this GI50 is lower/better than 65% of 102 FDA approved cancer drugs in [112]. A salt of 8a. e.g. 8a HCl, is likely to have an even lower G150 in NCI five-dose testing.
The Pearson correlation coefficient between 8a activity in 1-dose (10 μM) and at 10 μM in 5-dose NCI-60 testing: R=0.4544 p=0.00034. The Pearson correlation coefficient between 8b activity in 1-dose (10 μM) and at 10 μM in 5-dose NCI-60 testing: R=0.6156, p<0.00001. […] So, this isn't unexpected. Not wishing to be bound by theory, in 5-dose NCI-60 testing, why 8a has a lower mean GI50 than 8b will now be explained. […] Except for the cancer cell lines that 8b exerted much more activity than 8a at in 1-dose testing, wherein the increased activity of 8a can't completely make up the deficit and overtake the activity of 8b.

For a further test, the system named is MDA-MB-231/ATCC. The test can be described thus: NCI one-dose (10 μM) testing, MDA-MB-231/ATCC. Type of test: cell-based. The method, then: as §1
Test [3] has as its system F1F0 ATP hydrolysis. To be noted: [8, 109]; cited from earlier work.
The subject of another test is cells. As to conditions: each attached to the cargo sequence by introduced cysteines and a disulphide bond; cited from earlier work.
Test [4] is described as follows: rectal temperature and activity of mice administered compound. Type of test: in vivo, mouse. The method, then: Hypoactivity of mouse, after being administered compound 6b, was because 6b caused the mouse's body temperature to drop towards its ambient temperature (22° C.). When ambient equals optimal body temperature (37° C.), 6b cannot reduce body temperature and cannot cause hypoactivity. In some embodiments, the hypoactivity/sedation aspect to a compound(s) of this disclosure is utilized for therapy. The intersection between drug dose and ambient temperature dictates how much the body temperature falls and thence the depth of the sedation. Larger drug dose, and/or lower ambient temperature, causes deeper sedation (e.g. useful for inducing anaesthesia, pre-anaesthesia, post-anaesthesia, hypoesthesia, sedation, coma, tranquilization, behavioural submission, muscle relaxation and/or treating/ameliorating/preventing/combating insomnia, fatal insomnia, sleep onset latency, delayed sleep phase disorder, exploding head syndrome, parasomnia, sleep-maintenance insomnia, sleep disorder etc.; repeated/continuous administration, e.g. repeated i.v. injections or continuous i.v. infusion, of a compound(s) of this disclosure can sedate a subject for an extended period of time). Smaller drug dose, and/or higher ambient temperature, causes lighter sedation (e.g. useful for anti-anxiety, anti-depression, hyperactivity etc.). At ambient≥optimal body temperature (37° C.), no sedation occurs. […]

In test [5] the target is T1, F1F0 ATP hydrolysis (Bos taurus, UniProt P00829+P19483).
T1 construct: IF1 protein depleted Sub-Mitochondrial Particles (SMPs) from Bos taurus; from tissue; host or cells: sub-mitochondrial particles from Bos taurus, endogenous IF1 removed
As to conditions: cited from earlier work; for IC50: IF1 protein depleted SMPs from Bos taurus, pH 6.7, 37° C. [142].

[6] abbreviates: read-out: Mean % cancer growth inhibition.
The mark [7] stands for this setting: read-out: Median % cancer growth inhibition.

The inhibition is the relative decrease from the control value, in per cent. What is called IC50 is the point on the concentration scale where inhibition reaches its midpoint.

Consider `C[C@@](Cn1ccnc1)(N/C(=N/C(=O)c1cccc(C#N)c1)Nc1ccc(Cl)cc1)c1ccc(Cl)cc1Cl` [Compound 8a], for which the inhibition at 10 µM in [1] (setting [6]) is 60.3%; in [1] (setting [7]), 59.8%; in [2] (setting [6]), 103%; in test [2] (setting [7]), 95%. The “Δ % cancer growth inhibition, 8a greater than 8b” value in the test on A498 was 38.57. Moreover, in the test on NCI-H322M, the anti-cancer activity entry was “no activity”.

Regarding `C[C@](Cn1ccnc1)(N/C(=N/C(=O)c1cccc(C#N)c1)Nc1ccc(Cl)cc1)c1ccc(Cl)cc1Cl` [Compound 8b], the inhibition at 10 µM in [1] (setting [6]) stood at 76.5%; in [1] (setting [7]), 77%; in test [2] (setting [6]), 99.4%; in [2] (setting [7]) it was 93%. Further, the anti-cancer activity result in test [1] is given as “greater anti-cancer activity than 8a”; in the test with NCI-H322M it was “does”. Moreover, the “Δ % cancer growth inhibition, 8b greater than 8a” value in the test with MDA-MB-231/ATCC was determined as 85.34%.

For `N#Cc1cccc(C(=O)/N=C(\Nc2ccc(Cl)cc2)N[C@@H](Cn2ccnc2)c2ccc(Cl)cc2Cl)c1` [Compound 6a], in [1], the anti-cancer activity result is on record as “anti-cancer activity”. Also, the “ability to inhibit/reduce F1F0 ATP hydrolysis” value in the test with F1F0 ATP hydrolysis [3] is listed as “cannot”.

As for “RRRRRRR (Cell Penetrating Peptide (CPP) sequence) [Compound R7, heptamer of L-arginine residues, cell penetrating peptide]”, the “cellular penetration compared with Tat or penetratin” value in the test on cells is reported as “twice as good”.

Take `N#Cc1cccc(C(=O)/N=C(\Nc2ccc(Cl)cc2)N[C@H](Cn2ccnc2)c2ccc(Cl)cc2Cl)c1` [Compound 6b]: the anti-cancer activity entry in test [1] is “anti-cancer activity”. In addition, in [4] (ambient room temperature 22° C., dose dependent), the rectal temperature result is “reduces its rectal temperature towards the ambient room temperature”. The hypoactivity result in test [4] (ambient temperature 22° C.) is “hypoactivity”. Further, the “ability to inhibit/reduce F1F0 ATP hydrolysis” value with F1F0 ATP hydrolysis [3] is recorded as “can potently inhibit/reduce F1F0 ATP hydrolysis”.

Turning to “1-56: Bos taurus IF1 protein fragment, residues 1-56 (GSESGDNVRSSAGAVRDAGGAFGKREQAEEERYFRARAKEQLAALKKHHENEISHH; UniProt P01096 26-81, looked up, fragment) [Compound 1-56]”, in the test with F1F0 ATP hydrolysis [5], the IC50 is 32 nM.

Turning to “10-46: Bovine IF1 protein fragment, residues 10-46 (SSAGAVRDAGGAFGKREQAEEERYFRARAKEQLAALK; UniProt P01096 35-71, looked up, fragment) [Compound 10-46]”, the inhibitory activity entry in the test with F1F0 ATP hydrolysis [5] (bovine IF1 protein fragments, FIG. 10I legend [142, 144]) was “ten-fold less activity than 10-47”.

“Bos taurus IF1 protein: Bos taurus IF1 protein recombinantly produced in E. Coli”: the IC50 with F1F0 ATP hydrolysis [5] was 34 nM.

With `[2H][C@@](Cn1ccnc1)(N/C(=N/C(=O)c1cccc(C#N)c1)Nc1ccc(Cl)cc1)c1ccc(Cl)cc1Cl` [Compound 7a], in test [1], the anti-cancer activity result is “less anti-cancer activity than 6a”.

With “10-47: Bos taurus IF1 protein fragment, residues 10-47, mature numbering (SSAGAVRDAGGAFGKREQAEEERYFRARAKEQLAALKK; UniProt P01096 35-72, looked up, fragment) [Compound 10-47]”, in the test with F1F0 ATP hydrolysis [5], the IC50 was 45 nM.

As for “1-60: Bos taurus IF1 protein fragment, residues 1-60 (GSESGDNVRSSAGAVRDAGGAFGKREQAEEERYFRARAKEQLAALKKHHENEISHHAKEI; UniProt P01096 26-85, looked up, fragment) [Compound 1-60]”, the IC50 with F1F0 ATP hydrolysis [5] was 19 nM.

These data come from patent US20250325469A1, “Inhibitors of atp synthase - cosmetic and therapeutic uses” (priority 2021, published 2025).
